The source made the active and inactive calls. Non-standard residues stand in square brackets, D forms with d. Residues, ends and D or L forms follow the SMILES beside them.
Columns and labels:
P388/ADR = assay: cells; assay type: functional; conditions: Mus musculus
SN12K1 = assay: cells; assay type: functional; conditions: Homo sapiens
P388 = assay: cells; assay type: functional; conditions: Mus musculus
Beta-galactosidase = Beta-galactosidase (Escherichia coli, UniProt Q8VNN2); assay: PubChem AID 485352; assay type: functional
[1] = target: T1, Type-1 angiotensin II receptor (Homo sapiens, UniProt P30556); assay: antagonism of angiotensin II type 1 receptor – cell-based, uHTS hits, selectivity assay for APJ receptor antagonist project, dose response (AID 463214); assay type: functional;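 note: antagonist potency against angiotensin II stimulated AT1 response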
T1 sequence (P30556 whole entry): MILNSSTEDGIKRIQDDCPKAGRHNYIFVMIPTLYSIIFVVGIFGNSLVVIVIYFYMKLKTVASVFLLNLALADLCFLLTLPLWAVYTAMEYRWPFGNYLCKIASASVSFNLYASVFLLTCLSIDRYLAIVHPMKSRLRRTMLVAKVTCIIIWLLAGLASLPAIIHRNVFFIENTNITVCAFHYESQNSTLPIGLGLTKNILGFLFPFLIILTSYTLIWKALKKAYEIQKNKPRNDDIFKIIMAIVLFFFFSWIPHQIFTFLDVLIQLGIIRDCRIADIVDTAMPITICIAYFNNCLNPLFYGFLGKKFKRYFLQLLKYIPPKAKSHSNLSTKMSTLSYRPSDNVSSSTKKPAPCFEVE

Jurkat = assay: blockers of NF-kB activation in T cells – Jurkat, luciferase reporter, luminescence, B- and T-cell, dose response (AID 489004); assay type: functional, cell-based; conditions: Homo sapiens;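 note: NF-kB luciferase reporter Jurkat cells stimulated with PMA plus ionomycin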
[2] = HEK-293T viability loss, compound-treated – cell-based, uHTS hits, cytotoxicity control for B/T-cell NF-kB inhibitor project, dose response (AID 489019); assay type: functional;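 note: IC50 reflects cytotoxicity as loss of cell viability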
INS1 = assay: INS-1E survival protection against cytokine death – cell-based, luminescence, retest, dose response (AID 449756); assay type: functional; conditions: Rattus norvegicus;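 note: cell death triggered by IL-1 beta plus TNF-alpha plus IFN-gamma mixture; protective hits raise ATP signal compared with cytokine alone wells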
[3] = luciferase reporter signal suppression in cells – H4 neuroglioma cells, luminescence, dose response (AID 1990); assay type: functional, cell-based
HEK293 [4] = assay: inhibition of NOD1-driven NF-kB reporter – cell-based, luminescence, uHTS, primary screen (AID 1578); assay type: functional; conditions: Homo sapiens
HEK293 [5] = assay: cells; assay type: functional, cell-based; conditions: Homo sapiens
[6] = Luminescence Cell-Based Dose Response HTS to Identify Inhibitors of 5'UTR Stem-Loop Driven Prion Protein mRNA Translation in H4 Neuroglioblastoma Cells. [Related pubchem assays: 1827 (Project Summary), 1813 (Primary HTS)]; assay type: functional
[7] = target: T2, Heat shock factor protein 1 (Mus musculus, UniProt P38532); assay: decrease of HSF1-responsive luciferase luminescence – cell-based, NIH3T3, dose retest, confirmation (AID 2382); assay type: functional;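 note: NIH3T3 fibroblasts with HSF1-driven luciferase reporter stressed by proteasome inhibitor MG132; luminescence from HSF1-driven luciferase expression after 8 hours of MG132 stress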
T2 sequence (P38532 whole entry): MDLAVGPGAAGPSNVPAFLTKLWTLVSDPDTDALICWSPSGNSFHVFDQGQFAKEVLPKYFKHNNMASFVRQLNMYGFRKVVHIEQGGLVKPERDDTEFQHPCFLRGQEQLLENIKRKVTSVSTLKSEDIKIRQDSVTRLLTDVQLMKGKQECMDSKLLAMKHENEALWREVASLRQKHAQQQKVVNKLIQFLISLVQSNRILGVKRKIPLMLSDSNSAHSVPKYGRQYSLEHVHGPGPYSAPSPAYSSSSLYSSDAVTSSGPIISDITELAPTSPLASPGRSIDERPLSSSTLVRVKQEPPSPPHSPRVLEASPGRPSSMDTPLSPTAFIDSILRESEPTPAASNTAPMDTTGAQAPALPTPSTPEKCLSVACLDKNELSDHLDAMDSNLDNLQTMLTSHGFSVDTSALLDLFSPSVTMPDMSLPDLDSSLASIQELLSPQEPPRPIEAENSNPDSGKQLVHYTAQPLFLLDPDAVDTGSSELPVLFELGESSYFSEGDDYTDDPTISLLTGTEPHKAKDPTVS

[8] = alpha-synuclein stem-loop luciferase translation blockers – H4 neuroglioma cells, luminescence, confirmation (AID 1988); assay type: functional, cell-based
HEK293 [9] = assay: cells; assay type: functional, cell-based; conditions: Homo sapiens; remark: listed apart in the source
HEK293 [10] = assay: NOD2 signaling inhibitors in MDP-stimulated cells, cell-based, uHTS, luminescence (AID 2001); assay type: functional; conditions: Homo sapiens
Tumor necrosis factor = Tumor necrosis factor (Homo sapiens, UniProt P01375); assay: analog potency on TNFa NF-kB signaling – cell-based, revised, SAR follow-up (AID 2337); assay type: functional
[11] = target: T3, Nucleotide-binding oligomerization domain-containing protein 1 (Homo sapiens, UniProt Q9Y239); assay: blockers of NOD1 pathway activity – revised, SAR follow-up (AID 2333); assay type: functional
T3 sequence (Q9Y239 whole entry): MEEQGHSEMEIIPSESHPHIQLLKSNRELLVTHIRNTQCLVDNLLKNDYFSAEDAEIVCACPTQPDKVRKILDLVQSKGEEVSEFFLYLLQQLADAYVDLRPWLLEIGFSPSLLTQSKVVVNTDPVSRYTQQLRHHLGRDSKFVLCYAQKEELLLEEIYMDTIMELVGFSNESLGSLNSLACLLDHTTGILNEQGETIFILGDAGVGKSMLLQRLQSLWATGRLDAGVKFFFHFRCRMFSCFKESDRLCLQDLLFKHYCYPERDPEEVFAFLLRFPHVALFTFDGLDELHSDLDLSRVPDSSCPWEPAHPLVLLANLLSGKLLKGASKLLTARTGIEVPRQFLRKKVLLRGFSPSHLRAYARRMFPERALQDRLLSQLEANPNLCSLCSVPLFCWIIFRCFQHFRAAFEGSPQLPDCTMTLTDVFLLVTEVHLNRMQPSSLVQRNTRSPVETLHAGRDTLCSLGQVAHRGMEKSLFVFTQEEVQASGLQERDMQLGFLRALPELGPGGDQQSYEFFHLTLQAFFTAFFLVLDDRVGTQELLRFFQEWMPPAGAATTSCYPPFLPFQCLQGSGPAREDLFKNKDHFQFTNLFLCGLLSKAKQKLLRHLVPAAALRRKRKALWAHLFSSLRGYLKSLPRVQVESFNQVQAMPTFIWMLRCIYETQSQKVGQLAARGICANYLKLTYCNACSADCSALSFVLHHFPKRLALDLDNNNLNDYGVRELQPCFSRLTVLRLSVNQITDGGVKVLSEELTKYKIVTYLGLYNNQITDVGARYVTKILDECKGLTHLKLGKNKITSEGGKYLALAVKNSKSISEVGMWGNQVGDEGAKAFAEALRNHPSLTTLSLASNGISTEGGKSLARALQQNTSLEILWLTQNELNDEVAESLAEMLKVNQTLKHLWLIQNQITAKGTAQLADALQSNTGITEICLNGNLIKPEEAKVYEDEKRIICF

[12] = reduction of Shn3 3'UTR-driven luciferase in osteoblasts – cell-based, Clone20 osteoblasts, firefly luciferase, cherry-picked, dose response (AID 624132); assay type: functional;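 note: firefly luciferase luminescence from reporter carrying the Shn3 3'UTR in osteoblasts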
[13] = loss of viability in HepG2 cells – cell-based, CellTiter-Glo, cherry-picked, cytotoxicity control for Shn3 inhibitor project, dose response (AID 624134); assay type: functional
[14] = non-specific 3'UTR reporter inhibition in Clone20-Shn3RL – cell-based, Renilla luciferase, cherry-picked, counter-screen for Shn3 inhibitor project, dose response (AID 624133); assay type: functional
HEK293 [15] = assay: cells; conditions: Homo sapiens
[16] = target: T4, Tyrosine-protein phosphatase non-receptor type 11 (Homo sapiens, UniProt Q06124); assay: PTPN11 enzyme inhibitors – biochemical, selectivity assay for STEP inhibitor project, dose response (AID 602367); assay type: functional; conditions: read-out: IC50_Mean
T4 sequence (Q06124 whole entry): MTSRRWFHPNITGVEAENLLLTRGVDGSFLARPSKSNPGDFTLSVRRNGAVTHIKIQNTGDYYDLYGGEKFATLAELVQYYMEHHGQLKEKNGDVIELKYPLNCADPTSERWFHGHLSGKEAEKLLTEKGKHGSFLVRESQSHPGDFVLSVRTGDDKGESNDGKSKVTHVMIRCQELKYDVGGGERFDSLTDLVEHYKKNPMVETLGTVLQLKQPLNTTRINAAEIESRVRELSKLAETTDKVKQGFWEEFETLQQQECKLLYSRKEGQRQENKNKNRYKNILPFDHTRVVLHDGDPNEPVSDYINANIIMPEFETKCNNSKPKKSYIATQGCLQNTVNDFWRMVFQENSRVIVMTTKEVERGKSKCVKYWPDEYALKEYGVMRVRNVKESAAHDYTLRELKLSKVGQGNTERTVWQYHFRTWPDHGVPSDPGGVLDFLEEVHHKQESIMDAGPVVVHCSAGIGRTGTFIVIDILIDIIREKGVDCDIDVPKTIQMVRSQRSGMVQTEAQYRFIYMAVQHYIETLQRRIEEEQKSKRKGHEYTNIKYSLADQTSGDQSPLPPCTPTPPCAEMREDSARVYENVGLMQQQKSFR

[17] = target: T5, Tyrosine-protein phosphatase non-receptor type 5 (Homo sapiens, UniProt P54829); assay: PTPN5 enzyme inhibition – biochemical, fluorescence intensity, uHTS hits, confirmation (AID 602372); assay type: functional; conditions: read-out: IC50_Mean
T5 sequence (P54829 whole entry): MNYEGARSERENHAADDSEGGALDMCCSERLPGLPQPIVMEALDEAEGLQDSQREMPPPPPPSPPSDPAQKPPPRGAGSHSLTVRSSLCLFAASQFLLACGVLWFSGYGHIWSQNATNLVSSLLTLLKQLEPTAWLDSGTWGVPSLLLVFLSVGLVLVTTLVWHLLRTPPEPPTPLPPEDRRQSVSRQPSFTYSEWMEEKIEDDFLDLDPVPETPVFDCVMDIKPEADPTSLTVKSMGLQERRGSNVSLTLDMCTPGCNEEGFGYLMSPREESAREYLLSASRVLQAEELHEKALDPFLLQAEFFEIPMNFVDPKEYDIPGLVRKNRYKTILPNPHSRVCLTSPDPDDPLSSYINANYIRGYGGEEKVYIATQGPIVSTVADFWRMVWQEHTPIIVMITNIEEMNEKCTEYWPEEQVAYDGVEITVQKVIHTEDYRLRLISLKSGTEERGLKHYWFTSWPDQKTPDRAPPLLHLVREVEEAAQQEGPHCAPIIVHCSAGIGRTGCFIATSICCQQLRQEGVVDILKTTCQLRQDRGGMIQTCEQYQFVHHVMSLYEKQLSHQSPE

[18] = target: Dual specificity protein phosphatase 3 (Homo sapiens, UniProt P51452); assay: VHR phosphatase inhibition, dose response, selectivity assay for STEP inhibitor project, biochemical (AID 602374); assay type: functional; conditions: read-out: IC50_Mean
Sequence of Dual specificity protein phosphatase 3 (P51452 whole entry): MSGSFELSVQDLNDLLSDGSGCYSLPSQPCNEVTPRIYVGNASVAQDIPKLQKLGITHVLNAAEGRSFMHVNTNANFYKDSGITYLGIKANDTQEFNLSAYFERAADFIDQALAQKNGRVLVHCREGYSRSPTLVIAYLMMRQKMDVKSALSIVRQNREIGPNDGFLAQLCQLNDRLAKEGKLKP

Sequence of Beta-galactosidase (Q8VNN2 whole entry): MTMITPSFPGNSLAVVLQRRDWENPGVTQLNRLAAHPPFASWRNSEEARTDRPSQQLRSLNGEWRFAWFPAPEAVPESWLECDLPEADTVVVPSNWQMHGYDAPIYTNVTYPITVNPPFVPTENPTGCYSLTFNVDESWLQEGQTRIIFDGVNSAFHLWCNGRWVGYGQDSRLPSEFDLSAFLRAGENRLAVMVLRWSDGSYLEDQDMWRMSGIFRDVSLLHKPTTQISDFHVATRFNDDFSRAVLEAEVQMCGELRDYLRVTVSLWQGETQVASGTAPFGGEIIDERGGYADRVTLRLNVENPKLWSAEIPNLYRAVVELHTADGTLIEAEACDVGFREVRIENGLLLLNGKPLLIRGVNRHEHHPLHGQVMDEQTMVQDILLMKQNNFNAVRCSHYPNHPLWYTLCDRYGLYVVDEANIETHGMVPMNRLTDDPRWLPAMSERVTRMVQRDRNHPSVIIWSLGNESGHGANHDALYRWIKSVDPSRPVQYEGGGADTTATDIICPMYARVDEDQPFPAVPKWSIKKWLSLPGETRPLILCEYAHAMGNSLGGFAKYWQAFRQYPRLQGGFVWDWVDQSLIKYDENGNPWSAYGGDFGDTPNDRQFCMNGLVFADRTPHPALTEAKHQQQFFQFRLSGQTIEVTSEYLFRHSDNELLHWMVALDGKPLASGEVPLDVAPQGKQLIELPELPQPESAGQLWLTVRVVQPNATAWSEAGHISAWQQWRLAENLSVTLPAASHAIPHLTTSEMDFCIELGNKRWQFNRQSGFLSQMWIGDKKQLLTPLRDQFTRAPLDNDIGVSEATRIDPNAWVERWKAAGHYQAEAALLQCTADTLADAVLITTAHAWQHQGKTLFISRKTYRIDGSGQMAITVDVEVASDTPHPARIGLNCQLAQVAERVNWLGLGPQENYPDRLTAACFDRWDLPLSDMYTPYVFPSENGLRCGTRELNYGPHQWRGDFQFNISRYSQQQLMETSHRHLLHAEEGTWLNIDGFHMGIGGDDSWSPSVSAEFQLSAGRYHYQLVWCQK
Sequence of Tumor necrosis factor (P01375 whole entry, the tested form may be a part): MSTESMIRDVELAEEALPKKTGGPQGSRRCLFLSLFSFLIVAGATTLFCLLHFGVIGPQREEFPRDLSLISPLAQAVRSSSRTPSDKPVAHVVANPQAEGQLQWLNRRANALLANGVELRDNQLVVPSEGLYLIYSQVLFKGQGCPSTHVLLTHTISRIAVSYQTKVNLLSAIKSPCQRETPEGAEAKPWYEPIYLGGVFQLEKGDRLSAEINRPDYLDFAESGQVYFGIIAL

CC1NC(=O)CC(c2ccccc2)N(N=O)C1c1ccccc1 (stereo unspecified)
GI50 (P388/ADR): 15.3 µM (inactive) | GI50 (SN12K1): 21.6 µM (inactive) | GI50 (P388): 10.3 µM (inactive)

CC(C)C[C@H](NC(=O)[C@H](CC(C)C)NC(=O)[C@@H](Cc1c[nH]c2ccccc12)NC(=O)[C@H](Cc1ccccc1)NC(=O)[C@@H](Cc1c[nH]c2ccccc12)NC(=O)[C@H](CCC(N)=O)NC(=O)[C@H](CCC(N)=O)NC(=O)[C@H]1CCCN1C(=O)[C@@H](N)CCCCN)C(N)=O (H-K[dP]QQ[dW]F[dW]LL-NH2)
GI50 (P388/ADR): > 100 µM (inactive) | GI50 (SN12K1): > 100 µM (inactive) | GI50 (P388): > 100 µM (inactive)

Cc1ccc(C(=O)COC(=O)c2ccncc2)cc1[N+](=O)[O-]
EC50 (Beta-galactosidase): > 40 µM (inactive) | IC50 [1]: 20 µM (active)

C=C1C(O)[C@@H]2O[C@]3(CC[C@H](/C=C/C(C)[C@@H]4CC(C)=CC5(O[C@H](C[C@@](C)(O)C(=O)O)CCC5O)O4)O3)CC[C@H]2O[C@@H]1C(O)CC(C)[C@H]1OC2(CCCCO2)CCC1C (stereo partly specified)
IC50 (Jurkat): 0.17 µM (active) | IC50 [2]: > 80 µM (inactive) | AC50 (INS1): < 0.195 µM (active)

CC(Nc1ncnc2sccc12)c1ccccc1 (stereo unspecified)
EC50 [3]: > 120 µM (not active) | EC50 (HEK293 [4]): 1.36 µM (active) | IC50 (HEK293 [5]): 2.67 µM (active) | EC50 [6]: > 120 µM (not active) | EC50 [7]: > 195 µM (not active) | EC50 [8]: > 120 µM (not active) | IC50 (HEK293 [9]): 13.5 µM (active) | IC50 (HEK293 [10]): 3.62 µM (active) | IC50 (Tumor necrosis factor): 2.35 µM (active) | IC50 [11]: 1.55 µM (active) | IC50 (Jurkat): > 80 µM (inactive) | IC50 [2]: > 80 µM (inactive) | AC50 [12]: 0.505 µM (active) | AC50 [13]: 1.71 µM (active) | AC50 [14]: 0.606 µM (active) | IC50 (HEK293 [15]): > 20 µM (inactive)

Cc1ccc(NNC(=O)c2c(C)noc2C)cc1Cl
EC50 (Beta-galactosidase): > 40 µM (inactive) | IC50 [1]: 5.22 µM (active)

CCCCCCCCCCCC[C@@H](O)[C@H]1CC[C@H]([C@H](O)CCCC[C@H](O)CCCCC[C@@H](O)CC2=C[C@H](C)OC2=O)O1
GI50 (P388/ADR): 0.106 µM (active) | GI50 (SN12K1): < 0.01 µM (active) | GI50 (P388): < 0.0366 µM (active)

CN(C)CCNc1c2ccccc2c2c3c(cccc13)C(=O)N(CCN(C)C)C2=O
GI50 (P388/ADR): 0.218 µM (active) | GI50 (SN12K1): 0.31 µM (active) | GI50 (P388): 0.0723 µM (active)

Cc1cc(C)nc(NNS(=O)(=O)c2ccc(Cl)cc2)n1
EC50 (Beta-galactosidase): > 40 µM (inactive) | IC50 [1]: > 40 µM (not active)

CC(=O)Nc1ccc(NC(=O)c2ccc(CN3CCc4ccccc4C3)cc2)cc1
IC50 (Tumor necrosis factor): > 20 µM (inactive) | IC50 [11]: > 20 µM (inactive) | IC50 (HEK293 [15]): > 20 µM (inactive)

NNc1nc(-c2ccccc2)cc(-c2ccccc2O)n1
EC50 (Beta-galactosidase): > 40 µM (inactive) | IC50 [1]: 4.2 µM (active) | AC50 (INS1): 1.7 µM (active)

CCCCN(CC)Cc1ccc(CN=C(S)Nc2c(C)cc(C)cc2C)o1
IC50 [16]: 4.52 µM (active) | IC50 [17]: 45.9 µM (inactive) | IC50 [18]: 2.45 µM (active)

Source: ChEMBL document CHEMBL1201862, “PubChem BioAssay data set” (2004)
